Here are results for eight molecules from patent US5817826A, “Oxazolinone derivatives having cytosolic phospholipase A2 inhibitory activity” (Shionogi & Co., Ltd., priority 1993, dated 1998).

A short description of data set [1]: hygroscopicity (printed with the elemental analysis). The conditions noted are these: amorphous form. It counts as physicochemical.
Data set [2] addresses T1, cytosolic PLA2 (Homo sapiens, UniProt P47712).
T1 sequence (P47712 1-749): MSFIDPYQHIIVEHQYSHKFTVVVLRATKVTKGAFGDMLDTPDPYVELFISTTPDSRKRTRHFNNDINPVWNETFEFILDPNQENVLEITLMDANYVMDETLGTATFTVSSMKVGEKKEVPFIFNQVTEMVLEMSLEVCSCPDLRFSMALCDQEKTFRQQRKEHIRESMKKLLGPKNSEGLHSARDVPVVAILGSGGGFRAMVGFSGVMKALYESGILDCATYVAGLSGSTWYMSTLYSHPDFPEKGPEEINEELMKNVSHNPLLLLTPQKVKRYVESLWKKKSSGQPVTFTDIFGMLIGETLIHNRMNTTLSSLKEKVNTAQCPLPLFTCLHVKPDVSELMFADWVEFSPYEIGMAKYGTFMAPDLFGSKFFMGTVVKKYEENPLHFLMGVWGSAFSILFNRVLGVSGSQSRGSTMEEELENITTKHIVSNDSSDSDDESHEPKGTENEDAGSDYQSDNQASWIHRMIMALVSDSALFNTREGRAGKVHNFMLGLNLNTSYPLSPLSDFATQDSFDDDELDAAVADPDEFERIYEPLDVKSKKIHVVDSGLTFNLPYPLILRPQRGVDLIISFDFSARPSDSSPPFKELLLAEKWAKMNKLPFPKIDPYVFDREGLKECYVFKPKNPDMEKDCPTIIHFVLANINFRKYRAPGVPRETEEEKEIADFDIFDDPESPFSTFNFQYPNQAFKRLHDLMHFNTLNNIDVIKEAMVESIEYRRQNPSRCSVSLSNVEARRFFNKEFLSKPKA
The data set is described as follows: Cytosolic PLA2 inhibition activity (sonicated liposomes with 1-palmitoyl-2-[14C]arachidonyl-sn-glycero-3-phosphocholine). It counts as biochemical. To be noted: for IC50: 2 μM radiolabeled phosphatidylcholine liposomes, 1 mM CaCl2, pH 7.4; for inhibition at 2 µM: compound at 2 μM, relative to enzyme control. Here is the method: Taking the above matter into consideration, the compounds of the present invention were evaluated for their effect on cytosolic PLA2 activity as described in published literature [Kramer, R. M., Robers, E. F., Manetta, J. and Putanam, J. E. et al., J. Biol. Chem. 268 (8): 5268-5272, 1991]. Briefly, PLA2 activity was assayed using sonicated liposomes containing 1-palmitoyl-2-[^14 C]arachidonyl-sn-glycero-3-phosphocholine and sn-1,2-dioleoyl glycerol at a molar ratio of 2:1. The assay mixture contained 1 mM CaCl2, 2 mM 2-mercaptoethanol, 150 mM NaCl, 50 mM Hepes, pH 7.4, and 0.1 mg/ml BSA. The substrate consisted of 2 μM radiolabeled phosphatidycholine liposomes containing 1 μM dioleoyl glycerol.
The amount of released fatty acids in the reaction as mentioned above was quantitated by a liquid scintillation counter. Separately, the same assay was performed except that the compound of the present invention was not added to serve as the enzyme control. The inhibitioory activity was expressed as a percent (%) of PLA2 activity in the enzyme control, and thereby 50% inhibition concentration was calculated.

Each structure is given as a SMILES string.

`O=C(NCCN1CCCCC1)c1[nH]c(=O)oc1-c1ccccc1` [Compound 0030]: the hygroscopicity in data set [1] was determined as 5 µg/min. The molecule also had an IC50 in data set [2] of 103 µM.

In data set [2], `CC(C)=CCC/C(C)=C/Cn1cc(-c2ccccc2)oc1=O` [Compound 0095] came in with an IC50 of 35 µM and an inhibition at 2 µM of 26%.

`O=C1O[C@@H](c2ccccc2)[C@@H](c2ccccc2)N1Cc1cccc(F)c1` [Compound 0181] had an IC50 in data set [2] of 101 µM.

`O=c1[nH]c(-c2ccccc2)c(-c2ccc(S(=O)(=O)NCCC[n+]3ccccc3)cc2)o1` [Compound 0028] gave an IC50 in data set [2] of 103 µM. This IC50 and that of the molecule before are within 1.5-fold of each other.

For `CC(C)=CCC/C(C)=C/CN1C(=O)O[C@@H](c2ccccc2)[C@@H]1c1ccccc1` [Compound 0288], in data set [2], it took 2 µM to reach half-maximal inhibition (IC50) and the inhibition at 2 µM turned out to be 50%.

In the case of `O=c1oc(-c2ccccc2)c(-c2ccccc2)n1Cc1cccc(F)c1` [Compound 0039, 3-(3-Fluorobenzyl)-4,5-diphenyl-oxazol-2-one], in data set [2], 6.2 µM corresponded to half-maximal inhibition (IC50) and the inhibition at 2 µM came to 24%.

In data set [2], `O=C1O[C@@H](c2ccccc2)[C@H](c2ccccc2)N1CCCCc1ccccc1` [Compound 0289] gave an IC50 of 6.6 µM and an inhibition at 2 µM of 36%.

Turning to `CC(C)=CCC/C(C)=C/CN1C(=O)OC[C@@H]1Cc1ccccc1` [Compound 0315], in data set [2], the IC50 was determined as 90 µM and testing at 2 µM gave an inhibition of 22%.

For orientation: IC50 means the concentration that inhibits the measured activity by half. High values mean weaker potency in that assay, low ones greater potency in that assay. What is called inhibition is the relative decrease from the control value, in per cent. High values mean a response far below the control, low ones a response near the control.
